Source: ChEMBL document CHEMBL4673341, “Anti-prion and α-Synuclein Aggregation Inhibitory Sterols from the Sponge Lamellodysidea cf. chlorea” (J Nat Prod, 2020)
Calls of active or inactive are those of the source. No cut-off for these calls is given here.

Legend:
[1] = target: Alpha-synuclein (Homo sapiens) (UniProt P37840); assay: Inhibition of human alpha-synuclein aggregation expressed in Escherichia coli BL21 (DE3) cells at 400 uM at 5:1 molar ratio after 72 hrs by ThT fluorescence assay relative to control; design: scale not given: the % may be the effect or the level left
[2] = Anti-prion activity against [PSI+] protein in Saccharomyces cerevisiae STRg6 measured after 96 hrs by fluorimetry analysis
[3] = test system: Saccharomyces cerevisiae; assay: Anti-prion activity against [URE3] protein in Saccharomyces cerevisiae SB34 at 100 uM measured after 96 hrs by fluorimetry analysis
[4] = target: Alpha-synuclein (Homo sapiens) (UniProt P37840); assay: Binding affinity to human alpha-synuclein aggregation expressed in Escherichia coli BL21 (DE3) cells at 50 uM at 1:1 molar ratio after 3 hrs by (+) HRESIMS analysis

Row | Structure (SMILES) | Activity [1] [%] | EC50 [2] [µM] | Activity [3] | Activity [4]
1 | O=C(O[C@@H]1Cc2c(O)cc(O)cc2O[C@@H]1c1cc(O)c(O)c(O)c1)c1cc(O)c(O)c(O)c1 | 96.3 | – | – | –
2 | CC(/C=C/[C@@H](C)[C@H]1CC[C@@H]2[C@]1(C)CC[C@@H]1[C@@]3(C)CC[C@@H](O)C[C@@H]3C[C@@H](O)[C@]12O)C(C)COS(=O)(=O)O (some centres undefined) | – | 9.8 | – | –
3 | C[C@@H](C/C=C/[C@@H](C)[C@H]1CC[C@@H]2[C@]1(C)CC[C@@H]1[C@@]3(C)CC[C@@H](O)C[C@@H]3C[C@@H](O)[C@]12O)COS(=O)(=O)O (relative stereo) | – | 13.8 | – | –
4 | N=C(N)N/N=C/c1c(Cl)cccc1Cl [GUANABENZ] | – | 26 | Active | –
5 | CC(CCC[C@@H](C)[C@H]1CC[C@@H]2[C@]1(C)CC[C@@H]1[C@@]3(C)CC[C@@H](O)C[C@@H]3C[C@@H](O)[C@]12O)COS(=O)(=O)O (some centres undefined) | 68 | 12.7 | Active | Active
